Data as given in ChEMBL document CHEMBL1201862, “PubChem BioAssay data set” (2004).
Calls of active or inactive are those of the source.

Experiments:
[1] = A Cell Based Secondary Assay To Explore Cytotoxicity of Compounds that Sensitize Mycobacterium Tuberculosis to Beta-Lactam Antibiotics.; type: functional
[2] = tested on: Streptococcus sp. 'group A'; assay: Streptococcus pyogenes SK(-)GAS viability under kanamycin – luminescence, BacTiterGlo, confirmation, counter-screen for streptokinase expression inhibitor project, dose response (AID 1900); type: functional, organism-based
[3] = target: T1, Streptokinase A (Streptococcus pyogenes serotype M1, UniProt P10520); assay: viability-normalized secreted streptokinase activity reduction – plasminogen activation absorbance, OD405, dose response (AID 1914); type: functional, Streptococcus pyogenes M1 GAS;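 further: secreted streptokinase activity via plasminogen activation per viability signal from cell pellet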
T1 sequence (P10520 whole entry): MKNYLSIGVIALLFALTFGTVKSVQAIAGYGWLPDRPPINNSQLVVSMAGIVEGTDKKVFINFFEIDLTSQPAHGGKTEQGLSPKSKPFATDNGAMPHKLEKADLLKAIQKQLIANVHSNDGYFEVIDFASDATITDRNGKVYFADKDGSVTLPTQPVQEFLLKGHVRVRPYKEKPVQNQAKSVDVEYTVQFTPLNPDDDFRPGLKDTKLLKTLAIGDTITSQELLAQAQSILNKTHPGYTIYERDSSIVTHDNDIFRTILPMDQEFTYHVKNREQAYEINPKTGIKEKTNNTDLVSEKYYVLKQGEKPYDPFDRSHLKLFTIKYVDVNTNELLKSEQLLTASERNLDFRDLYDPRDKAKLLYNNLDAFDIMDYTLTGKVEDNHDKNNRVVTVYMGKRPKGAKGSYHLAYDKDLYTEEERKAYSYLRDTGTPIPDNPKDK

[4] = Luminescence-based dose response cell-based high throughput screening assay for cytotoxic compounds using the IEC-6 intestinal epithelial cell line. [Related pubchem assays: 1858 (Summary AID.), 1825 (Counterscreen.), 1907 (Confirmation screen.)]; type: functional
[5] = tested on: Streptococcus; assay: GAS UMAA2166 growth inhibition – luminescence, BacTiterGlo, counter-screen for streptokinase expression inhibitor project, dose response (AID 1915); type: functional, organism-based;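 further: potency for reduction of bacterial viability or growth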
[6] = target: Trypsin (Sus scrofa, UniProt P00761); assay: trypsin protease activity blockade – biochemical, quenched peptide fluorescence, cherry-pick, selectivity assay for Rce1 protease inhibitor project, dose response (AID 488789)
[7] = M. tuberculosis H37Rv growth inhibitors, H37Rv strain (AID 1626); type: functional
[8] = target: T2, Estrogen receptor (Homo sapiens, UniProt P03372);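 further: potency for inhibiting coactivator peptide recruitment to the receptor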
T2 sequence (P03372 whole entry): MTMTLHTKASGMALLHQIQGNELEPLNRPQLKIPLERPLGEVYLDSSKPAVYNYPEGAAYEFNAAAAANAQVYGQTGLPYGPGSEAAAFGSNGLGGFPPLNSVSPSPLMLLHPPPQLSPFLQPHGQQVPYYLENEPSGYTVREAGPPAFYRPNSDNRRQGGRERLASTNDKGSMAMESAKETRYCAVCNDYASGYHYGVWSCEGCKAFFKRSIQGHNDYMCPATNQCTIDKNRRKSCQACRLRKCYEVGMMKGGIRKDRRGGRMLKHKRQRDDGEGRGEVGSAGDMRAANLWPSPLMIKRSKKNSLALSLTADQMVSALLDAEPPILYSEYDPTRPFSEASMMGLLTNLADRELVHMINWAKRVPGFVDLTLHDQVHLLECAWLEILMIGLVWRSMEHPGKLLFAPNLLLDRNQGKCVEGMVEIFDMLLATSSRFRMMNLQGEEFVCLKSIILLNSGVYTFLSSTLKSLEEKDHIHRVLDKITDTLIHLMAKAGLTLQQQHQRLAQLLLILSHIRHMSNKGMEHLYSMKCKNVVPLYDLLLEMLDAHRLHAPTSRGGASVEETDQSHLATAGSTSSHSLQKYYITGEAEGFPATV

[9] = target: Cytochrome P450 3A4 (Homo sapiens, UniProt P08684); conditions: Potency;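 further: confirmatory qHTS run detecting inhibitors and substrates of CYP3A4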
[10] = target: Luciferin 4-monooxygenase (Photinus pyralis, UniProt P08659); assay: Counter Screen for Luciferase-based Assay Positives. [Related pubchem assays: 620, 618, 411 ]
[11] = cells; type: functional, cell-based
[12] = Trypanosoma cruzi growth suppression in host cells – NIH3T3 host cells, beta-gal luminescence, confirmation (AID 2044); type: functional, cell-based;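 further: intracellular parasites grown in NIH/3T3 mouse fibroblasts as host cells; luminescent beta-galactosidase reporter signal from transgenic T. cruzi replicating inside host cells; inhibitors lower the luminescence signal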
[13] = cells; type: functional, cell-based; remark: listed apart in the source
[14] = tested on: HT-1080; assay: HT1080 cell viability loss – fluorescence readout (AID 620); type: functional, cell-based; conditions: Homo sapiens
[15] = NIH3T3 cell viability loss – ATP luminescence, mouse fibroblasts, counter-screen, dose response (AID 2010); type: functional, cell-based;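 further: cells exposed to compound for about 90 hours before reading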
[16] = target: Nonstructural protein 1 (Influenza A virus, UniProt Q194T2); type: functional, Influenza A virus (A/California/07/2009(H1N1))
[17] = reduction of Shn3 3'UTR-driven luciferase in osteoblasts – cell-based, Clone20 osteoblasts, firefly luciferase, cherry-picked, dose response (AID 624132); type: functional;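 further: firefly luciferase luminescence from reporter carrying the Shn3 3'UTR in osteoblasts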
[18] = loss of viability in HepG2 cells – cell-based, CellTiter-Glo, cherry-picked, cytotoxicity control for Shn3 inhibitor project, dose response (AID 624134); type: functional
[19] = non-specific 3'UTR reporter inhibition in Clone20-Shn3RL – cell-based, Renilla luciferase, cherry-picked, counter-screen for Shn3 inhibitor project, dose response (AID 624133); type: functional
[20] = target: T3, Aminopeptidase N (Plasmodium falciparum FcB1/Columbia, UniProt O96935); assay: malaria alanyl aminopeptidase activity blockers – biochemical, fluorogenic H-Leu-NHMec substrate, 1536-well (AID 1445); set-up: species or system Plasmodium falciparum 3D7, 3D7
T3 sequence (O96935 whole entry): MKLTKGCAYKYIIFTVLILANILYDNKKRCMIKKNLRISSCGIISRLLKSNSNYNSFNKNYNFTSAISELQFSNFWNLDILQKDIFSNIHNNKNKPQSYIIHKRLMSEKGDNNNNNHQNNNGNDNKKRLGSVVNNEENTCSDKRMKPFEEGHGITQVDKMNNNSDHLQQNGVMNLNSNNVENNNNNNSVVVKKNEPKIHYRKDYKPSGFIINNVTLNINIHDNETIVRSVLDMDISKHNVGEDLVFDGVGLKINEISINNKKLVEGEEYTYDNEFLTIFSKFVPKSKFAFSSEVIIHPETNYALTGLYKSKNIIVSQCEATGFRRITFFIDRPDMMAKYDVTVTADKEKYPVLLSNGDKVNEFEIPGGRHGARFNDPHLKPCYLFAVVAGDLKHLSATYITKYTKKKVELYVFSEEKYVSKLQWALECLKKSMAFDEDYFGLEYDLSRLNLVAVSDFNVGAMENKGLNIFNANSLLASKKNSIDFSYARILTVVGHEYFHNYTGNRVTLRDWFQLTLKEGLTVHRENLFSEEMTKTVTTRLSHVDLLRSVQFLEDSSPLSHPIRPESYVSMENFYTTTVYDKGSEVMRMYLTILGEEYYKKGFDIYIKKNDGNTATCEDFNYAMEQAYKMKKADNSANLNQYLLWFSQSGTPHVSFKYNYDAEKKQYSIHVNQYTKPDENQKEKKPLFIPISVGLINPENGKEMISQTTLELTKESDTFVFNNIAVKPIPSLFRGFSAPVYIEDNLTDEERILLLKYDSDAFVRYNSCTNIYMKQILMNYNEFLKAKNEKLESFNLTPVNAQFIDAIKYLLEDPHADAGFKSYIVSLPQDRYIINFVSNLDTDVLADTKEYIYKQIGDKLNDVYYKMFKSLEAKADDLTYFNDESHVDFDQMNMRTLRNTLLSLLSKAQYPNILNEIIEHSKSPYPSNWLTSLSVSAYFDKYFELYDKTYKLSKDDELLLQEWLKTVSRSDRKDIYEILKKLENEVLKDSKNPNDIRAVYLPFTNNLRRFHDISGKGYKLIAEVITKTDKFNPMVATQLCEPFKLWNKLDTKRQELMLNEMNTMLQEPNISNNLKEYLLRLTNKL

[21] = target: T4, Heat shock factor protein 1 (Mus musculus, UniProt P38532); assay: enhancement of HSF1-driven luciferase signal – cell-based, NIH3T3, luminescence, dose retest, confirmation (AID 435004); type: functional;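 further: stress induced by proteasome inhibitor MG132 added 30 min after compound; luciferase reporter driven by HSF1 response element in NIH3T3 cells; actives raise luminescence as potentiators of the MG132 stress response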
T4 sequence (P38532 whole entry): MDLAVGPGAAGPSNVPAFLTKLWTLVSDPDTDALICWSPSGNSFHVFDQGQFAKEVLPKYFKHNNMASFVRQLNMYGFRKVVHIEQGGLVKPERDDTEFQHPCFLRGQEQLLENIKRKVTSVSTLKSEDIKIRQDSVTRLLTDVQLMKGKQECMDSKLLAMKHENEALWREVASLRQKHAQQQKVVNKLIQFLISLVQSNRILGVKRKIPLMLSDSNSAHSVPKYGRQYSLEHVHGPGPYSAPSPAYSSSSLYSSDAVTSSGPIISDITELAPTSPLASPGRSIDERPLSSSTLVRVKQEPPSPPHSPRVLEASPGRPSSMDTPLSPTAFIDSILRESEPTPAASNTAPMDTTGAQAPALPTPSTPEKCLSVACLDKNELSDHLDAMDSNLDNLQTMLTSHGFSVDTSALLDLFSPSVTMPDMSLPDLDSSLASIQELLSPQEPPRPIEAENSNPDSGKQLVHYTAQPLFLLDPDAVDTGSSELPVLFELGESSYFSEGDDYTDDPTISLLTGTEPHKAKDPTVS

[22] = tested on: Vero; assay: viability of Vero cells under compound – cytotoxicity control for flavivirus capping enzyme inhibitors (AID 588742); type: functional; conditions: Chlorocebus sabaeus
[23] = target: Genome polyprotein (dengue virus type 2, UniProt P29990); assay: flavivirus cap methylation enzyme inhibition – biochemical, confirmation dose response, primary screen (AID 588689); type: functional
[24] = target: T5, Leucine aminopeptidase (Plasmodium falciparum 3D7, UniProt Q8IL11); assay: P. falciparum M17LAP inhibitors, primary screen, biochemical, fluorogenic H-Leu-NHMec substrate, 1536-well (AID 1619); type: functional
T5 sequence (Q8IL11 whole entry): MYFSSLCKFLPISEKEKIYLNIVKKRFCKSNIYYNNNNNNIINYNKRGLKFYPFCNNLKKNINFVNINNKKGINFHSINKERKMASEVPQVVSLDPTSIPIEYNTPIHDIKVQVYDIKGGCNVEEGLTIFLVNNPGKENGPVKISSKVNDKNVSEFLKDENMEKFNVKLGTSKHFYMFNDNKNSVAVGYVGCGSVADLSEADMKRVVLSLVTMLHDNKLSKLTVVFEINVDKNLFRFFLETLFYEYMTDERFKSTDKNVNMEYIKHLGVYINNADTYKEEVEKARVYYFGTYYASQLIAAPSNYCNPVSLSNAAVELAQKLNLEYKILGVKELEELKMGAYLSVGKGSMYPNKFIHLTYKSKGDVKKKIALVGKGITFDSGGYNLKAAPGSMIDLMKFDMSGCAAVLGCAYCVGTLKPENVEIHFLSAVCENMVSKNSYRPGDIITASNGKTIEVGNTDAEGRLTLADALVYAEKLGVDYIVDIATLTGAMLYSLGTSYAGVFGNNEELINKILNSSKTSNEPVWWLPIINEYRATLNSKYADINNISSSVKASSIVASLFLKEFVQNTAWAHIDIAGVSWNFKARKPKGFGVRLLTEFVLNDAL

[25] = viability of PTEN-deleted HCT116 cells – cell-based, HCT116 PTEN knockout, dose response (AID 1047); type: functional;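 further: HCT116 colon tumor cells with PTEN knocked out; cells exposed to compound for 60 hours before readout; potency for loss of cell viability measured by luminescence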
[26] = viability of HCT116 lacking mutant beta-catenin – cell-based, human colon tumor, dose response (AID 1045); type: functional;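 further: HCT116 colon tumor cells with beta catenin knocked out; cells exposed to compound for 60 hours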
[27] = target: Cytochrome P450 2C19 (Homo sapiens, UniProt P33261); assay: Cytochrome panel assay with activity outcomes. Panel member name: p450-cyp2c19 Compounds with AC50 equal or less than 10 uM are considered active; type: functional; conditions: read-out: AC50
Chain of Cytochrome P450 2C19 (P33261 whole entry): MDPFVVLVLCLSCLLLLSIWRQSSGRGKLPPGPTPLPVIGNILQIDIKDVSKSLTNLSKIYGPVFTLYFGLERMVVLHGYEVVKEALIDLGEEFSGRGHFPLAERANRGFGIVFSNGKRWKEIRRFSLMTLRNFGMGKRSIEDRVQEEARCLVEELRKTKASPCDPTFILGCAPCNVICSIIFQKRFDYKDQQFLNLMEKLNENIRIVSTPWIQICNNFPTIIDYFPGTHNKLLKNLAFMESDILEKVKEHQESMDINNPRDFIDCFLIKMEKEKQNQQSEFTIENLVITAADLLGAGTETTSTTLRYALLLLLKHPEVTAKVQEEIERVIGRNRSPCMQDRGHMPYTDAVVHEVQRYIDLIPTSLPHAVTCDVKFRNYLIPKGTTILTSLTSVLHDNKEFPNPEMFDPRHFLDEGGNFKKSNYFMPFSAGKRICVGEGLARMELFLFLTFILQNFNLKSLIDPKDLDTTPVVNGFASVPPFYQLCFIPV

Chain of Cytochrome P450 3A4 (P08684 whole entry): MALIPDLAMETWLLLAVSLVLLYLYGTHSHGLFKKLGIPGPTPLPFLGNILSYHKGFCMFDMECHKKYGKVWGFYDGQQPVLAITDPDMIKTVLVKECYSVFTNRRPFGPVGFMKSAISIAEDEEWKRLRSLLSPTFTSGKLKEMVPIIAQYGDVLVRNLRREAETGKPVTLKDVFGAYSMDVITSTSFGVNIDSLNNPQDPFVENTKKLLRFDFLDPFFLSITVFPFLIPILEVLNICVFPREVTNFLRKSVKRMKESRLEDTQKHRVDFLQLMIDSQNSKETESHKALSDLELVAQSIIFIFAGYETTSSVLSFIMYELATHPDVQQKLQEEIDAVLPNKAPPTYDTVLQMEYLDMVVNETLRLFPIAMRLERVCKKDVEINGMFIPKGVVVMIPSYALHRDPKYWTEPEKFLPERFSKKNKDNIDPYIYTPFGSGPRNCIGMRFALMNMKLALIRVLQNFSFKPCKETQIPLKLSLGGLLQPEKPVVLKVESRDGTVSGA
Chain of Genome polyprotein (P29990 2492-3391 limits assumed): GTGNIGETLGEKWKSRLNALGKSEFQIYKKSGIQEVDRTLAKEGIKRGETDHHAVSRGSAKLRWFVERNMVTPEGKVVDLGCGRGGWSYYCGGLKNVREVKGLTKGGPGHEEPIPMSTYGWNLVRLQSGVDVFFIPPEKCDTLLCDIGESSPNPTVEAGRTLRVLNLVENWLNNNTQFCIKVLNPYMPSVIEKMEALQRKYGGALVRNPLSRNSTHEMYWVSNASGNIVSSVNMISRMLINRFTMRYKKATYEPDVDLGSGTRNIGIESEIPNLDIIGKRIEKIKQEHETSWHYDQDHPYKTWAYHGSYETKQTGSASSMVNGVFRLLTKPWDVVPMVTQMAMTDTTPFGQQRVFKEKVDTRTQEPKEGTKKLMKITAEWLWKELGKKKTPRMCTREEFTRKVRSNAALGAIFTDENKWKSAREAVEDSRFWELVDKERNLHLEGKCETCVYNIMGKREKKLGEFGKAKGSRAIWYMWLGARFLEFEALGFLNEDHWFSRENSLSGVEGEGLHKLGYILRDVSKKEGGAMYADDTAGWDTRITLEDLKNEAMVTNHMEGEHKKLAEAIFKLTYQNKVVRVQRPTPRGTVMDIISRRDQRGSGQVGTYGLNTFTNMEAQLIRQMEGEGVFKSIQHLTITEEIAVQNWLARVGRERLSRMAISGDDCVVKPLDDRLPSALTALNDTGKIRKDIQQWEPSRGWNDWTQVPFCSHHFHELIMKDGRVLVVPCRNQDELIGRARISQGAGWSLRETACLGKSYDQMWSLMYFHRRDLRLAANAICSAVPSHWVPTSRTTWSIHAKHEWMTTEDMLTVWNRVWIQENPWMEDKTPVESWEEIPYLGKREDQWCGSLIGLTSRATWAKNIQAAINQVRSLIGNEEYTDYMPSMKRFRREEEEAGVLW
Chain of Nonstructural protein 1 (Q194T2 whole entry): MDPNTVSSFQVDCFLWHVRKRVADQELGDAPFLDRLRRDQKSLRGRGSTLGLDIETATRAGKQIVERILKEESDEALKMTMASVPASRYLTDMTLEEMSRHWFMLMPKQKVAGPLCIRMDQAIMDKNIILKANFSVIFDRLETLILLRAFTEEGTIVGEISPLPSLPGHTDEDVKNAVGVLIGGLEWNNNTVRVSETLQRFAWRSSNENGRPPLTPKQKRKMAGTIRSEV
Chain of Luciferin 4-monooxygenase (P08659 whole entry): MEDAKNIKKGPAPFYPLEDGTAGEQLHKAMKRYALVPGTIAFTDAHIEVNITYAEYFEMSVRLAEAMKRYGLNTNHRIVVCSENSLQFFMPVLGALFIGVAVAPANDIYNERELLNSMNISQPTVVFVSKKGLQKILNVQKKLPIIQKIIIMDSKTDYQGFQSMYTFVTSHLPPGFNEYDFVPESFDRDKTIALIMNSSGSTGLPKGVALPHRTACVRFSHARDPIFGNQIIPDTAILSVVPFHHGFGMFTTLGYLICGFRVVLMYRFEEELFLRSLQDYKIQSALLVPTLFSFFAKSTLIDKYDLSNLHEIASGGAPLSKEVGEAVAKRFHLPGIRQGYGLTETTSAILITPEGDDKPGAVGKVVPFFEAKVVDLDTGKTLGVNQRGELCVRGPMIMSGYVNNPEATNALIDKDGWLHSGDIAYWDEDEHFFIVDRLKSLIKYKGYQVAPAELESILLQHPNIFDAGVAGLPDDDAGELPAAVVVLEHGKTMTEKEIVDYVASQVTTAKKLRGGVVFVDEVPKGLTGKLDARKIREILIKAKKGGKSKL
Chain of Trypsin (P00761 whole entry): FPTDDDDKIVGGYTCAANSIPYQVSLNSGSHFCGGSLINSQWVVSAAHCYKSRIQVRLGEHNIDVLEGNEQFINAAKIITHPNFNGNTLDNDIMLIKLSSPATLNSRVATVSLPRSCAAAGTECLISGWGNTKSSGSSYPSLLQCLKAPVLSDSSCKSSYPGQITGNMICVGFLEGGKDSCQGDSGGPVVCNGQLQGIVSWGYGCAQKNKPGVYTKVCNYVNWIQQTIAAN

## COc1cccc(/C=N/NC(=O)NC23CC4CC(CC(C4)C2)C3)c1O
[1]
  CC50: 23.3 µM (active)

## CCOc1ccc2[nH]c3c(N4CCc5ccccc5C4)ncnc3c2c1
[2]
  EC50: 10.4 µM (active)
[3]
  EC50: > 150 µM (not active)
[4]
  IC50: 5.99 µM (active)
[5]
  EC50: 19.9 µM (active)
[6]
  AC50: 6.04 µM (active)

## O=C(CCC(=O)Nc1ccc(Oc2ccccc2)cc1)NCCO
[7]
  IC50: > 100 µM (active)

## COc1cccc(OCc2nnc(SCC(=O)NCc3ccco3)n2CCc2ccccc2)c1
[8]
  IC50: > 50 µM (not active)

## COc1cc(O)c(C)c(O)c1 [2,6-DIHYDROXY-4-METHOXYTOLUENE]
[9]
  AC50: 39.8 µM (inconclusive)

## CCC/C(=N/Nc1ccc(Cl)cc1)c1cnnc(-c2ccccc2)n1
[8]
  IC50: 3.85 µM (active)

## C#CCCCCCCCCCCCc1ccco1
[9]
  AC50: 39.8 µM (inconclusive)

## C[C@@H]1CC=C[C@H]2[C@H]1C(=O)N(Cc1ccccc1)[C@H]2c1ccc(/C=C/c2ccccc2)cc1F
[1]
  CC50: > 40 µM (active)

## C=CCNc1nc(-c2ccccn2)nnc1-c1ccccc1
[10]
  EC50: < 0.2 µM (active)
[11]
  EC50: 7.13 µM (active)
[12]
  EC50: 2.27 µM (active)
[13]
  EC50: > 350 µM (not active)
[14]
  EC50: > 50 µM (not active)
[15]
  EC50: 5.1 µM (active)
[16]
  IC50: 1.25 µM (active)
[17]
  AC50: 3.17 µM (active)
[18]
  AC50: 6.36 µM (active)
[19]
  AC50: 3.97 µM (active)

## Cc1nccc(-c2cccc(N/N=C(\C#N)C(=O)c3ccccc3)c2)n1
[20]
  IC50: 16 µM (active)

## CCOc1cc([N+](=O)[O-])cc(/C=C2/NC(=O)N(Cc3ccccc3F)C2=O)c1O
[20]
  IC50: 55.6 µM (active)
[21]
  EC50: > 260 µM (inactive)
[22]
  CC50: > 40 µM (active)
[23]
  IC50: 58.8 µM (active)

## COc1ccc(NC(=O)CC(Cc2ccccc2)C(=O)O)cc1 (stereo unspecified)
[24]
  IC50: 18.7 µM (active)

## COCCCn1c(=N)c(C(=O)NCC2CCCO2)cc2c(=O)n3cccc(C)c3nc21 (stereo unspecified)
[20]
  IC50: 78.4 µM (active)

## CC(C)NC(=O)[C@H]1C[C@@H]1[C@H](NC(=O)OCc1ccccc1)c1ccccc1
[9]
  AC50: 7.94 µM (inconclusive)

## COc1ccc(-c2c(C(F)(F)F)oc3cc(OCC(=O)Nc4ccccc4C(F)(F)F)ccc3c2=O)cc1OC
[1]
  CC50: 10.9 µM (active)
[25]
  EC50: 3.45 µM (active)
[26]
  EC50: 3.72 µM (active)

## Oc1c(/C=N/c2ccc(Oc3ccccc3)cc2)cnn1-c1cccc(Cl)n1
[7]
  IC50: > 100 µM (active)
[27]
  AC50: 11.2 µM (inconclusive)

## Cc1ncc(CC(=O)n2cc(C(=O)c3cc(F)ccc3O)cn2)s1
[24]
  IC50: 71.1 µM (active)
